Active and inactive are the calls of the source. No cut-off for these calls is given here.
Test system: MDA-MB-231
Assay: Inhibition of clonogenicity in human MDA-MB-231/M cells assessed as reduction in colony formation incubated for 7 days by crystal violet staining based analysis
Assay type: functional, cell-based
Conditions: time 7.0 day

## O=c1c2ccccc2[se]n1-c1nc(N[C@H]2CC[Se]C2)c2nc[nH]c2n1
  inhibition: Active
